The values below are quoted from earlier work in patent US10206391B2, “Strobilurin formulations” (priority 2011, dated 2019).

Values after ≈ are worked out from the molar mass of the structure shown. Where two headings read alike, the source gives them in different places.

For data set [1], the system named is plants.
Test in data set [2]: not given
This is another data set of the same source.

Test in data set [3]: not given
The source holds these as a separate data set.

Test in data set [4]: not given
The source holds these as a separate data set.

As to `CNC(=O)/C(=N/OC)c1ccccc1COc1cc(C)ccc1C` [Dimoxystrobin, (E)-2-(methoxyimino)-N-methyl-2-[α-(2,5-xylyloxy)-o-tolyl]acetamide], where the note is “20° C.”, the “Solubility in DMF” value is 200 to 250 mg/mL, the Solubility in acetone is 67 to 80 mg/mL, the Solubility in acetonitrile is 50 to 57 mg/mL and the Solubility in dichloromethane was more than 250 mg/mL. Further, under “20° C.”, the “Solubility in ethyl acetate” value was 33 to 40 mg/mL; the Solubility in isopropanol entry is “isopropanol, n-heptane, n-octanol and olive oil all <10 g/l”; the Solubility in methanol was 20 to 25 mg/mL; the Solubility in n-heptane entry was “isopropanol, n-heptane, n-octanol and olive oil all <10 g/l”. Besides, for the setting “20° C.”, the “Solubility in n-octanol (octanol)” value is “isopropanol, n-heptane, n-octanol and olive oil all <10 g/l”; the “Solubility in olive oil” value is “isopropanol, n-heptane, n-octanol and olive oil all <10 g/l”; the Solubility in toluene is 20 to 25 mg/mL. Besides, where the note is “pH 5.7, 20° C.”, the Solubility in water was 0.0043 mg/mL (≈ 0.0132 mM). In addition, the Solubility in water (pH 8.0, 20° C.) is 0.0035 mg/mL (≈ 0.0107 mM). Also, the “Metabolic stability in plants and xylem systemicity (in words)” value (from here on “Metabolic stability”) in data set [1] (plant tissues) was “metabolically sufficiently stable in plants and show a pronounced xylem systemicity”. In addition, the “KOW logP” value in data set [2] (pH 6.5) is “logP = 3.59”. Further, in data set [3] (water, pH 7), the “DT50 for aqueous photolysis” value is listed as “DT50 for aqueous photolysis 30 days, pH7”. Moreover, the “Time stable in aqueous solution” value in data set [4] (pH 4-9, 50° C.) is “Stable >30 d in aqueous solution at pH 4-9, 50 °C”.

As for `CC1(c2ccc(Oc3ccccc3)cc2)OC(=O)N(Nc2ccccc2)C1=O` (centres unmarked) [Famoxadone, 3-anilino-5-methyl-5-(4-phenoxyphenyl)-1,3-oxazolidine-2,4-dione], the “KOW logP” value in data set [2] (pH 7) is reported as “logP = 4.65”. Moreover, the “DT50 for aqueous photolysis” value was 4.6 days in data set [3] (pH 5) and 1.9 days in data set [3] (water, pH 7). Besides, in data set [4] (pH 5, 25° C.), the “DT50 in water with light” value is given as 4.6 d (pH 5, 25° C.). The “DT50 in water with no light” value in data set [4] (pH 5, 25° C.) was 41 days; in data set [4] (pH 7, 25° C.), 2 days; in data set [4] (pH 9, 25° C.), 0.0646 d (pH 9) (25° C.); in water with light, DT50.

In the case of `CO/N=C(/C1=NOCCO1)c1ccccc1Oc1ncnc(Oc2ccccc2Cl)c1F` [Fluxastrobin, (E)-{2-[6-(2-chlorophenoxy)-5-fluoropyrimidin-4-yloxy]phenyl}(5,6-dihydro-1,4,2-dioxazin-3-yl)methanone O-methyloxime], for the setting “20° C.”, the Solubility in dichloromethane is more than 250 mg/mL, the Solubility in isopropanol is 6.7 mg/mL (≈ 14.6 mM), the Solubility in n-heptane is 0.04 mg/mL (≈ 0.0872 mM) and the Solubility in xylene is 38.1 mg/mL (≈ 83 mM). Also, where the note is “pH 7, 20° C.”, the Solubility in water was 0.00229 mg/mL (≈ 0.00499 mM). For the setting “unbuffered, 20° C.”, the Solubility in water was 0.00256 mg/mL (≈ 0.00558 mM). In addition, the “Metabolic stability” value in data set [1] (plant tissues) was “metabolically sufficiently stable in plants and show a pronounced xylem systemicity”. For the same compound, the “KOW logP” value in data set [2] (20° C.) is reported as “logP = 2.86”. For the same compound, the “Photolytic stability DT50” value in data set [3] (sterile aqueous phosphate buffer, pH 7) was “DT50 3.8-4.1 days in sterile aqueous phosphate”. Besides, the “Photolytic stability DT50” value in data set [3] (under solar summer conditions, Phoenix AZ, USA in June) is recorded as “buffer, pH 7; 19- 22 days under solar summer”. Further, the “Hydrolysis DT50” value in data set [4] (pH 4, 7 and 9, 50° C.) is “Hydrolysis DT50 >1 y (pH 4, 7 and 9, 50° C.);”.

As for `CO/N=C(/C(=O)OC)c1ccccc1COc1ccccc1C` [Kresoxim-methyl, methyl(E)-methoxyimino[2-(o-tolyloxymethyl)phenyl]acetate], the “DT50 for aqueous photolysis” value in data set [3] (water, pH 7) is “Photolysis DT50 18.2 days, pH7”. For the same compound, in data set [4] (pH 5, text wrapped over r19-r20 reads 'relatively stable at pH 5'), the “Stability (in words)” value is “stable at pH 5”. Moreover, the figures for the “Hydrolysis DT50” value in data set [4] (pH 7) and in data set [4] (pH 9) were 816 h and 7 h, respectively.

Take `CNC(=O)/C(=N/OC)c1ccccc1CO/N=C(C)/C(=N/OC)C(/C)=N/OC` [Orysastrobin, 2[(E)-methoxyimino]-2-[(3E,6E)-2-{5-[(E)-methoxyimino]-4,6-dimethyl-2,8-dioxa-3,7-diazanona-3,6-dienyl}phenyl]-N-methylacetamide]: the Solubility in water entry (20° C.) is given as “water 80.6 mg/l (20° C.)”. In data set [2] (20° C.), the “KOW logP” value is given as “logP = 2.36”. Further, the “DT50 for aqueous photolysis” value in data set [3] (water, pH 7) was “Photolysis DT50 0.8 days, pH7”.

With `CO/C=C(/C(=O)OC)c1ccccc1COc1cccc(C(F)(F)F)n1` [Picoxystrobin, methyl(E)-3-methoxy-2-[2-(6-trifluoromethyl-2-pyridyloxymethyl)phenyl]acrylate], the “Metabolic stability” value in data set [1] (in vivo) is “metabolically sufficiently stable in plants and show a pronounced xylem systemicity”. The “DT50 for aqueous photolysis” value in data set [3] (water, pH 7) was “DT50 for aqueous photolysis 21 days, pH7”. Further, the DT50 in data set [4] (pH 9, 50° C.) was approximately 15 days.

On to `COC(=O)N(OC)c1ccccc1COc1ccn(-c2ccc(Cl)cc2)n1` [Pyraclostrobin, methyl N-{2-[1-(4-chlorophenyl)pyrazol-3-yloxymethyl]phenyl}(N-methoxy)carbamate], for which, where the note is “20° C.”, the Solubility in acetone result was “acetonitrile, dichloromethane and toluene >500 (all g/l”; the Solubility in acetonitrile result is “acetonitrile, dichloromethane and toluene >500 (all g/l”; the Solubility in dichloromethane result is “acetonitrile, dichloromethane and toluene >500 (all g/l”; the “Solubility in ethyl acetate” value was “acetonitrile, dichloromethane and toluene >500 (all g/l”. Under “20° C.”, the Solubility in isopropanol was 30.0 mg/mL (≈ 77.4 mM); the Solubility in methanol entry is recorded as “methanol 100.8, acetone, ethyl acetate, g/l”; the Solubility in n-heptane was 3.7 mg/mL (≈ 9.54 mM); the “Solubility in n-octanol (octanol)” value is 24.2 mg/mL (≈ 62.4 mM). For the same compound, for the setting “20° C.”, the “Solubility in olive oil” value was 28.0 mg/mL (≈ 72.2 mM); the Solubility in toluene entry is “acetonitrile, dichloromethane and toluene >500 (all g/l”. Also, the “DT50 for aqueous photolysis” value in data set [3] (water, pH 7) is “Photolysis DT50 in water 1.7 days, pH7”. Besides, the Time stable entry in data set [4] (pH 5-7, 25° C.) is on record as “Stable >30 d (pH 5-7, 25° C.)”.

Turning to `CO/N=C(/C(=O)OC)c1ccccc1CO/N=C(\C)c1cccc(C(F)(F)F)c1` [Trifloxystrobin, methyl(E)-methoxyimino-{(E)-α-[1-(α,α,α-trifluoro-m-tolyl)ethylideneaminooxy]-o-tolyl}acetate], the “DT50 for aqueous photolysis” value in data set [3] (pH 5) is reported as 1.1 days; in data set [3] (water, pH 7) it was 2.7 days. Moreover, in data set [4] (pH 5), the “Stability to hydrolysis (in words)” value is on record as “stable”. For the same compound, the “Hydrolysis DT50” value in data set [4] (pH 7, 20° C.) was 11.4 w; in data set [4] (pH 9, 20° C.), 27.1 h.
